Results on six compounds are retold here after publication PMC8848031 (Saudi Journal of Biological Sciences, 2021).

The term IC50 denotes the concentration at which inhibition is half-maximal. Read a low IC50 as greater potency in that assay. By Ki is commonly meant the equilibrium dissociation constant of an inhibitor or competing ligand from its target. A high value points to lower affinity. In general, Vmax refers to the top rate of the reaction or transport when substrate is in excess.

Assay [1] has as its target Saccharomyces cerevisiae α-glucosidase (E.C 3.2.1.20) (Saccharomyces cerevisiae, UniProt P53341). Kind of assay: Alpha-glucosidase inhibition assay. The class given is biochemical. To be noted: Alpha-glucosidase inhibition IC50, isolated compounds; acarbose positive control.
Assay [2] concerns the target alpha-glucosidase (Saccharomyces cerevisiae, UniProt P53341). As to the kind of experiment: Inhibitory type assay of BM3 on alpha-glucosidase. The assay is classed as biochemical.
For assay [3], the system named is alpha-glucosidase. Particulars: kinetic studies; ref Adisakwattana et al. (2009); cited from earlier work.
The test system of assay [4] is alpha-glucosidase. To be noted: ref Wu et al., 2017; cited from earlier work.
The next assay relates to pancreatic lipase enzyme. Particulars: extracted from T. stans leaves; ref [28]; cited from earlier work.

Structures are written as SMILES. Where “and” joins values, the source holds several entries; their conditions need not be identical. Equal entries are not always repeated.

Sequence of Saccharomyces cerevisiae α-glucosidase (E.C 3.2.1.20) (P53341 whole entry): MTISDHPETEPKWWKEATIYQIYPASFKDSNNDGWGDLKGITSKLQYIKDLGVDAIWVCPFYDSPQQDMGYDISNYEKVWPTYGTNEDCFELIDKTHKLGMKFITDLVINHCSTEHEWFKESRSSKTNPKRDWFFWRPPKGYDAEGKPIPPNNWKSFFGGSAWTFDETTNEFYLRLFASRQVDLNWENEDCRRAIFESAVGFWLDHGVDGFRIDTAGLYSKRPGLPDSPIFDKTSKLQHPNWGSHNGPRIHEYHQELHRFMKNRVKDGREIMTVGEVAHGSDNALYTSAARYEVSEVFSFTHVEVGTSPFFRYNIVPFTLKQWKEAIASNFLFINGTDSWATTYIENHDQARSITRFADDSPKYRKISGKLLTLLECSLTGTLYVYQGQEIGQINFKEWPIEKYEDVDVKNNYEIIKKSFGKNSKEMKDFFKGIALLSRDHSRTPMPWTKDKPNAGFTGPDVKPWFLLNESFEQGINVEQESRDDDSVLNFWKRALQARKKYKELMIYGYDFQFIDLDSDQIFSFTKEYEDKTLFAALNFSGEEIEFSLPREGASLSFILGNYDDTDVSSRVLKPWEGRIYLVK
Sequence of alpha-glucosidase (Saccharomyces cerevisiae, UniProt P53341) (P53341 whole entry): as above

`COC(=O)c1cc(O)c(O)c(O)c1` [BM2, methyl gallate] showed an IC50 in assay [1] of 71 ± 2.1 µM.
Take `COC(=O)c1cc(O)c(O)c(OC(=O)c2cc(O)c(O)c(O)c2)c1` [BM3, 3-O-galloylgallic acid methyl ester]: inhibition in assay [1] was half-maximal at 18.2 ± 0.8 µM (IC50). On alpha-glucosidase [2], this compound had a Ki of 31.2 µM. In addition, the inhibition type entry against alpha-glucosidase [2] (Lineweaver-Burk plots, pNPG 1, 2, 4 mM) was “competitive”. Further, the Vmax on alpha-glucosidase [2] (no effect of increasing BM3 concentration) is 0.049 µM/min.
As for `O=c1c(O[C@@H]2O[C@H](CO)[C@@H](O)[C@H](O)[C@H]2O)c(-c2ccc(O)c(O)c2)oc2cc(O)cc(O)c12` [NC2, isoquercitrin], the IC50 in assay [1] was 35.6 µM and 36.8 µM.
Turning to `O=C(O)/C=C/c1ccc(O)c(O)c1` [NC3, caffeic acid], in the assay with alpha-glucosidase [3], the inhibition type entry is listed as “non-competitive”.
For the compound `C[C@H]1[C@H](C)CC[C@]2(C(=O)O)CC[C@]3(C)C(=CC[C@@H]4[C@@]5(C)CC[C@H](O)C(C)(C)[C@@H]5CC[C@]43C)[C@H]12` [TS1, ursolic acid], the IC50 in assay [1] amounted to 39.2 ± 0.6 µM. For the same compound, the inhibition of alpha-glucosidase entry in the assay on alpha-glucosidase [4] is reported as “strong inhibition”.
Consider `COc1cc(-c2cc(=O)c3c(O)cc(O)cc3o2)ccc1O` [TS3, chrysoeriol], for which the “inhibition of pancreatic lipase enzyme” value in the assay on pancreatic lipase enzyme was “strong inhibition”.
